Measurements taken from patent US8772478B2, “Benzenesulfonamide compounds, method for synthesizing same, and use thereof in medicine as well as in cosmetics” (Galderma Research & Development, priority 2009, dated 2014).

Columns and labels:
TACE enzyme [1] = target: TACE enzyme (Homo sapiens, UniProt P78536); test: Enzymatic assay for TACE inhibition; format: biochemical; settings: for % TACE inhibition at 10 μM: 10 μM compound
Experimental: (§1) A serial 3-fold dilution over 10 points is carried out so as to have a concentration range of from 10 μM to 0.5 nM final concentration. […] The substrate is used at 40 μM. […] The IC50 is determined using mathematical processing software (XLfit).

MMP3 = MMP3 (Homo sapiens (Human), UniProt P08254); test: Selectivity assay MMP3; format: biochemical
ADAM10 = ADAM10 (Homo sapiens (Human), UniProt O14672); test: Selectivity assay ADAM10; format: biochemical
Experimental: as §1
(§2) The enzymes are purchased from Calbiochem.

MMP9 = MMP9 (Homo sapiens (Human), UniProt P14780); test: Selectivity assay MMP9; format: biochemical
Experimental: as §1, §2

MMP1 = MMP1 (Homo sapiens (Human), UniProt P03956); test: Selectivity assay MMP1; format: biochemical
Experimental: as §1, §2

ADAM9 = ADAM9 (Homo sapiens (Human), UniProt Q13443); test: Selectivity assay ADAM9; format: biochemical
Experimental: as §1, §2

TACE enzyme [2] = settings: from WO 00/44709, table 10, example 61; cited from earlier work
[3] = fluorescent substrate 40 μM, pH 7.4

Sequence of TACE enzyme (Homo sapiens, UniProt P78536) (P78536 215-824 limits assumed): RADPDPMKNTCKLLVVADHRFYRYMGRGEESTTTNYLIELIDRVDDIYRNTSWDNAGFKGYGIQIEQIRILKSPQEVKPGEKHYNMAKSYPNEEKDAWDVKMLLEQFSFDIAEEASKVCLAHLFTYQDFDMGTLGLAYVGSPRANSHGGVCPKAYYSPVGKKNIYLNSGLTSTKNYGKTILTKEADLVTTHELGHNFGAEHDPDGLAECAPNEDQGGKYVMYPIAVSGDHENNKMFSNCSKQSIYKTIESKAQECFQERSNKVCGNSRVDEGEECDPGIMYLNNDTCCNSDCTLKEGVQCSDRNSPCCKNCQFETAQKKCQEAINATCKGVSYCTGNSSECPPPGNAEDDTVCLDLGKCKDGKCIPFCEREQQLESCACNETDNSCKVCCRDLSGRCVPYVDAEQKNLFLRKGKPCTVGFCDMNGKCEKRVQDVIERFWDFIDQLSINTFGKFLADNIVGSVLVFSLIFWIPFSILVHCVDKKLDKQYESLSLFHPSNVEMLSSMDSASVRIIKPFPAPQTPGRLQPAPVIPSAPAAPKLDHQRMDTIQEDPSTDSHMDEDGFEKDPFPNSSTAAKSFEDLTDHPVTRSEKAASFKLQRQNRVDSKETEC
Sequence of MMP3 (P08254 100-477, species assumed): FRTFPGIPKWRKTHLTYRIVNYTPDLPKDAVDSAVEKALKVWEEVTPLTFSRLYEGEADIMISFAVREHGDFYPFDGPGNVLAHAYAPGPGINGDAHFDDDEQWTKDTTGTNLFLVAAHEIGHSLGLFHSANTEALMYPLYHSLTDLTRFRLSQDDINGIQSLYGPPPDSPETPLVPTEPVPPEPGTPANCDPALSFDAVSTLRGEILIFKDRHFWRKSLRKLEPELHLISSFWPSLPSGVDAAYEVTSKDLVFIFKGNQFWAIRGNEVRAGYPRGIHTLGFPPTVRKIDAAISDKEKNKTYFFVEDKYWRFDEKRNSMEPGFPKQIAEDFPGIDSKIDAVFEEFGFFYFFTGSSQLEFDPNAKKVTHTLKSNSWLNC
Sequence of MMP9 (P14780 94-707, species assumed): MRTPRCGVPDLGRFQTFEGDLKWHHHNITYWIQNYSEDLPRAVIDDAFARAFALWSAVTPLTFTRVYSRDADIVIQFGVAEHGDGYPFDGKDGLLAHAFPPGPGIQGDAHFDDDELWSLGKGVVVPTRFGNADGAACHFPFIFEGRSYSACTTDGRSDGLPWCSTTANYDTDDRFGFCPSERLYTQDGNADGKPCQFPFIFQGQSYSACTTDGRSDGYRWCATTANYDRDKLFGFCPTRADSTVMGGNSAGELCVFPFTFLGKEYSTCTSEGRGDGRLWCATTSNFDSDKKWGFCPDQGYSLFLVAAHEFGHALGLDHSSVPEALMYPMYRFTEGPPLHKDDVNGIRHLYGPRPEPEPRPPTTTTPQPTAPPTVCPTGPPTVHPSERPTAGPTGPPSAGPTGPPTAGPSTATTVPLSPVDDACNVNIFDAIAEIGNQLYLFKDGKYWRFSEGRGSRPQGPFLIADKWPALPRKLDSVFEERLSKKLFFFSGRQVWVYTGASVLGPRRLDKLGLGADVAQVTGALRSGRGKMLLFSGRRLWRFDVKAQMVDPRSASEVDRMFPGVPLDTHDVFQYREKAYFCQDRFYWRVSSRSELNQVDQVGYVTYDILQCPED
Sequence of ADAM10 (O14672 214-748, species assumed): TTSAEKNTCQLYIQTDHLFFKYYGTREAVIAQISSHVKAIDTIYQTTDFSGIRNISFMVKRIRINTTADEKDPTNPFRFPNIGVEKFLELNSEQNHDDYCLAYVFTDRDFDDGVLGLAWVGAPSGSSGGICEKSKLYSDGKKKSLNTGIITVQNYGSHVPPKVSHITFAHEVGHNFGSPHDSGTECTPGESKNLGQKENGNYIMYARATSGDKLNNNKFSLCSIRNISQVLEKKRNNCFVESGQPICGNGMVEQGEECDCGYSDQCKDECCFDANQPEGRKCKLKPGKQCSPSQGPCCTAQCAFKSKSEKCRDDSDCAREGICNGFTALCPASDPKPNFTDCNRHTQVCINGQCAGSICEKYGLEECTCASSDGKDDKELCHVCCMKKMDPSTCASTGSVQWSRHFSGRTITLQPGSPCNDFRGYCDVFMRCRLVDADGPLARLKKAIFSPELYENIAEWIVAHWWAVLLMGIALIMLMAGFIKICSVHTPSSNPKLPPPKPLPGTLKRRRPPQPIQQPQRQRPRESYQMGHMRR
Sequence of ADAM9 (Q13443 29-819, species assumed): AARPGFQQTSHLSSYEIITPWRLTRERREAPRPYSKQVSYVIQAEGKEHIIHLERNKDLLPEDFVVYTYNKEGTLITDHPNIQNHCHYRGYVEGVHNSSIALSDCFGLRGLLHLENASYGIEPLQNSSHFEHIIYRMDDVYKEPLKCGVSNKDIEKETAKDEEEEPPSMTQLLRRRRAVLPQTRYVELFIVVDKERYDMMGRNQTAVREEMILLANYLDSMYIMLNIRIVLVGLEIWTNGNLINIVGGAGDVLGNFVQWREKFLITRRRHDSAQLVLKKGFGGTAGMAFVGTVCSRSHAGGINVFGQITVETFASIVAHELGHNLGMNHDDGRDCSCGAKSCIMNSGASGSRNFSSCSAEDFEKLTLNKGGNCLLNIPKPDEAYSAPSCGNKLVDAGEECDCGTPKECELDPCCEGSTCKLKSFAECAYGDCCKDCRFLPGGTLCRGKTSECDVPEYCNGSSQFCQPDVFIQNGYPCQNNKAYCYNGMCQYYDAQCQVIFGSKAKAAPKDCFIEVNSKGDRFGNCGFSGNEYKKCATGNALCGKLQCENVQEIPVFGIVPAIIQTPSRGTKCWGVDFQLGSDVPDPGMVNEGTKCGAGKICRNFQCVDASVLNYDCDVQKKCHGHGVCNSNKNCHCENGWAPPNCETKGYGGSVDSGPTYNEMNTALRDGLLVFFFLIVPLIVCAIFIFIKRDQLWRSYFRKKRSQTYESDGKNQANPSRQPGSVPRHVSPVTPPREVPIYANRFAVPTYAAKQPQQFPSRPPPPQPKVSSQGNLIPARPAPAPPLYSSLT
Sequence of MMP1 (P03956 100-469, species assumed): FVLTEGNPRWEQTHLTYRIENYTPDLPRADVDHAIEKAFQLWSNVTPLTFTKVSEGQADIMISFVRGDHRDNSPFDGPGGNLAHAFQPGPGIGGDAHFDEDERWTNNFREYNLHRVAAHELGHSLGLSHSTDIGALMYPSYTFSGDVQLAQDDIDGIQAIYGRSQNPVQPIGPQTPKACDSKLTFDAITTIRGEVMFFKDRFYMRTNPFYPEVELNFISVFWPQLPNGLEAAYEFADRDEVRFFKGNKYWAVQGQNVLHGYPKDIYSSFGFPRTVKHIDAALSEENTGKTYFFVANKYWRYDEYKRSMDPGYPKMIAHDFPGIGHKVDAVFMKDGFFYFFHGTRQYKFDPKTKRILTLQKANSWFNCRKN

Row | Compound | % TACE inhibition at 10 μM (TACE enzyme [1]) [%] | IC50 (TACE enzyme [1]; [3]) [µM] | other results
1 | O=C(NO)[C@H](CNS(=O)(=O)c1ccc(OCc2ccc3ccccc3c2)cc1)N1CCCCC1 [Example 5, (S)—N-Hydroxy-3-[4-(naphthalen-2-ylmethoxy)benzenesulfonylamino]-2-piperidin-1-ylpropionamide] | 97 | 0.249 | –
2 | O=C(NO)[C@H](CNS(=O)(=O)c1ccc(OCc2ccc(F)cc2)cc1)N1CCCCC1 [Example 3, (S)-3-[4-(4-fluorobenzyloxy)benzenesulfonylamino]-N-hydroxy-2-piperidin-1-ylpropionamide] | 97 | 0.181 | –
3 | Cc1cc(COc2ccc(S(=O)(=O)NC[C@@H](C(=O)NO)N3CCCCC3)cc2)c2ccccc2n1.Cl.Cl [Example 15, (S)—N-hydroxy-3-[4-(2-methylquinolin-4-ylmethoxy)benzenesulfonylamino]-2-piperidin-1-ylpropionamide dihydrochloride] | 98 | – | –
4 | O=C(NO)[C@H](CNS(=O)(=O)c1ccc(OCc2ccc(Cl)c(Cl)c2)cc1)N1CCCCC1 [Example 6, (S)-3-[4-(3,4-dichlorobenzyloxy)benzenesulfonylamino]-N-hydroxy-2-piperidin-1-ylpropionamide] | 97 | 0.328 | –
5 | Cc1cc(COc2ccc(S(=O)(=O)NC[C@@H](C(=O)NO)N3CCOCC3)cc2)c2ccccc2n1 [Example 14, (S)—N-hydroxy-3-[4-(2-methylquinolin-4-ylmethoxy)benzenesulfonylamino]-2-morpholin-4-ylpropionamide] | 91 | 0.038 | IC50 (MMP3): 3.03 µM; IC50 (TACE enzyme [1]; as listed in selectivity assay table): 0.024 µM
6 | O=C(NO)[C@H](CNS(=O)(=O)c1ccc(OCc2cc(Cl)cc(Cl)c2)cc1)N1CCCCC1 [Example 9, (S)-3-[4-(3,5-dichlorobenzyloxy)benzenesulfonylamino]-N-hydroxy-2-piperidin-1-ylpropionamide] | 99 | 0.469 | –
7 | O=C(NO)[C@H](CNS(=O)(=O)c1ccc(OCc2ccccc2)cc1)N1CCCC1 [Example 2, (S)-3-(4-benzyloxybenzenesulfonylamino)-N-hydroxy-2-pyrrolidin-1-ylpropionamide] | 95 | 0.298 | –
8 | Cc1cc(COc2ccc(S(=O)(=O)NC[C@@H](C(=O)NO)N3CCCCC3)cc2)c2ccccc2n1 [Example 8, (S)—N-hydroxy-3-[4-(2-methylquinolin-4-ylmethoxy)benzenesulfonylamino]-2-piperidin-1-ylpropionamide] | 99 | – | IC50 (ADAM10): > 10 µM; IC50 (MMP9): > 10 µM; IC50 (MMP1): 3 µM; IC50 (MMP3): 4.5 µM; IC50 (ADAM9): > 10 µM
9 | CC1(C)SCCN(S(=O)(=O)c2ccc(OCC#CCO)cc2)[C@H]1C(=O)NO [Apratastat] | – | – | selectivity for the TACE enzyme compared with certain MMPs (TACE enzyme [2]): not selective
10 | O=C(NO)[C@H](CNS(=O)(=O)c1ccc(OCc2ccccc2)cc1)N1CCOCC1 [Example 7, (S)-3-(4-benzyloxybenzenesulfonylamino)-N-hydroxy-2-morpholin-4-ylpropionamide] | 98 | 0.147 | –
11 | O=C(NO)[C@H](CNS(=O)(=O)c1ccc(OCc2ccccc2)cc1)N1CCCCC1 [Example 1, (S)-3-(4-benzyloxybenzenesulfonylamino)-N-hydroxy-2-piperidin-1-ylpropionamide] | 98 | 0.181 | –
